In brackets after ≈: the same amount, converted by molar mass.
Tests used:
[1] = system: T1, Candida albicans F2014a093; test: microbe, parasite or virus in culture; set-up: species or system Candida albicans strains; CLSI M27 broth microdilution, RPMI 1640, OD600 growth, MIC at 50% inhibition; conditions: F2014A093, 24 h, read-out: 5-FUrd MIC (µg/mL)
T1 construct: F2014a093
Protocol: (§1) Minimum inhibitory concentrations (MICs) of 5-FUrd were determined by broth microdilution method in accordance with the guidelines in Clinical and Laboratory Standards Institute (CLSI) document M27[25], using RPMI 1640 medium containing 0.165 M MOPs (pH 7.0) and 0.2% glucose, an inoculum of 10^3 cells/well, and incubated for 24 hr at 35°C, followed by OD600 reading by TECAN SPARK plate reader. The MIC50 of 5-FUrd was determined as the lowest dosage of 5-FUrd causing 50% inhibition of the growth by using the concentrations in the range of 0.004-2μg/mL. MICs of […] of human use (5-FC; four azoles: posaconazole, voriconazole, itraconazole, fluconazole; and three echinocandins: anidulafungin, caspofungin and micafungin) were determined by the microdilution colorimetric Sensititre YeastOne SYO-09 panel (TREK Diagnostic Systems, Cleveland, OH, USA); in accordance with the manufacturer’s instructions. MICs values were determined visually, after 24 hours of incubation, as the lowest concentration of drug that caused complete inhibition (amphotericin B) or a significant diminution (≥50% inhibition; flucytosine, azoles and echinocandins) of growth relative to that of the growth control. Table 2. Minimum inhibitory concentrations of 5-FUrd and antifungal drugs of clinical used for pathogenic and drug-resistant isolates of Candida albicans^a We further tested the 5-FUrd sensitivity of a number of pathogenic C. albicans isolates from patients. […] Because 5-FC is intracellularly metabolized to 5-FU, we asked why the 5-FC-resistant isolates remained sensitive to 5-FUrd. Several mutations in 5-FC resistant strains were identified in the enzymes involved in the formation of 5-FUMP from 5-FC, including purine-cytosine permease (Fcy2), cytosine deaminase (Fca1) and uracil phosphoribosyltransferase (Fur1). These 5-FC-resistant but 5-FUrd-sensitive strains might have mutations in these genes. 5-FUrd is transported into C. albicans through uridine permease (Fui1) and is then phosphorylated to 5-FUMP by uridine kinase (Urk1). Presumably, activation of 5-FUrd metabolism by the Fui1 and Urk1 pathways can overcome the defects in genes mediating 5-FC activation, namely, Fcy2, Fca1 and Fur1, leading to toxicity, as depicted in Fig 6. One important effect of antifungal drugs is host liver toxicity.

[2] = system: T2, Candida albicans F2014f090; test: microbe, parasite or virus in culture; set-up: species or system Candida albicans strains; CLSI M27 broth microdilution, RPMI 1640, OD600 growth, MIC at 50% inhibition; conditions: F2014F090, 24 h, read-out: 5-FUrd MIC (µg/mL)
T2 construct: F2014f090
Protocol: as §1

[3] = system: T3, Candida albicans F2015f019; test: microbe, parasite or virus in culture; set-up: species or system Candida albicans strains; CLSI M27 broth microdilution, RPMI 1640, OD600 growth, MIC at 50% inhibition; conditions: F2015F019, 24 h, read-out: 5-FUrd MIC (µg/mL)
T3 construct: F2015f019
Protocol: as §1

[4] = system: T4, Candida albicans F2016e085; test: microbe, parasite or virus in culture; set-up: species or system Candida albicans strains; CLSI M27 broth microdilution, RPMI 1640, OD600 growth, MIC at 50% inhibition; conditions: F2016E085, 24 h, read-out: 5-FUrd MIC (µg/mL)
T4 construct: F2016e085
Protocol: as §1

[5] = system: T5, Candida albicans F2016g048; test: microbe, parasite or virus in culture; set-up: species or system Candida albicans strains; CLSI M27 broth microdilution, RPMI 1640, OD600 growth, MIC at 50% inhibition; conditions: F2016G048, 24 h, read-out: 5-FUrd MIC (µg/mL)
T5 construct: F2016g048
Protocol: as §1

[6] = system: T6, Candida albicans F2016f024; test: microbe, parasite or virus in culture; set-up: species or system Candida albicans strains; CLSI M27 broth microdilution, RPMI 1640, OD600 growth, MIC at 50% inhibition; conditions: F2016F024, 24 h, read-out: 5-FUrd MIC (µg/mL)
T6 construct: F2016f024
Protocol: as §1

Candida albicans SC5314 = system: T7, Candida albicans SC5314; test: microbe, parasite or virus in culture; set-up: species or system Candida albicans strains; CLSI M27 broth microdilution, RPMI 1640, OD600 growth, MIC at 50% inhibition; conditions: SC5314, 24 h, read-out: 5-FUrd MIC (µg/mL)
T7 construct: SC5314
Protocol: as §1

[7] = system: T8, Candida albicans F2017g023; test: microbe, parasite or virus in culture; set-up: species or system Candida albicans strains; CLSI M27 broth microdilution, RPMI 1640, OD600 growth, MIC at 50% inhibition; conditions: F2017G023, 24 h, read-out: 5-FUrd MIC (µg/mL)
T8 construct: F2017g023
Protocol: as §1

[8] = system: T9, Candida albicans ATCC90028; test: microbe, parasite or virus in culture; set-up: species or system Candida albicans strains; CLSI M27 broth microdilution, RPMI 1640, OD600 growth, MIC at 50% inhibition; conditions: ATCC90028, 24 h, read-out: 5-FUrd MIC (µg/mL)
T9 construct: ATCC 90028
Protocol: as §1

[9] = system: T10, Candida albicans F2016a067; test: microbe, parasite or virus in culture; set-up: species or system Candida albicans strains; CLSI M27 broth microdilution, RPMI 1640, OD600 growth, MIC at 50% inhibition; conditions: F2016A067, 24 h, read-out: 5-FUrd MIC (µg/mL)
T10 construct: F2016a067
Protocol: as §1

[10] = system: T11, Candida albicans F2015b076; test: microbe, parasite or virus in culture; set-up: species or system Candida albicans strains; CLSI M27 broth microdilution, RPMI 1640, OD600 growth, MIC at 50% inhibition; conditions: F2015B076, 24 h, read-out: 5-FUrd MIC (µg/mL)
T11 construct: F2015b076
Protocol: as §1

[11] = system: T12, Candida albicans F2016c087; test: microbe, parasite or virus in culture; set-up: species or system Candida albicans strains; CLSI M27 broth microdilution, RPMI 1640, OD600 growth, MIC at 50% inhibition; conditions: F2016C087, 24 h, read-out: 5-FUrd MIC (µg/mL)
T12 construct: F2016c087
Protocol: as §1

CaTMPK = molecular target: T13, CaTMPK (Candida albicans, UniProt Q59TV7); test: NADH-coupled assay (pyruvate kinase / lactate dehydrogenase); format: biochemical; conditions: 2 mM ATP, 100 mM Tris-HCl, 100 mM KCl, 10 mM MgCl2
T13 construct: gene CAALFM_C111790WA; pGEX-2T in E. coli BL21; N-terminal GST cut by thrombin; CTG codon changed to TCG to keep native Ser68; synthetic gene GenScript #5001191-1
T13 sequence (Q59TV7 1-224 limits assumed): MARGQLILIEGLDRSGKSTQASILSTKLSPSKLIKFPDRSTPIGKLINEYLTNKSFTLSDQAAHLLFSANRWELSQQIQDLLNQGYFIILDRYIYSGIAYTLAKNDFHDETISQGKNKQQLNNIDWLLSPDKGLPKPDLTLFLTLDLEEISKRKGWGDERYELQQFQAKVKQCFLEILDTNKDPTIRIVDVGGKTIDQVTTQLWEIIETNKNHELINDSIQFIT

hTMPK = molecular target: T14, hTMPK (Homo sapiens, UniProt P23919); test: as above; format: biochemical; conditions: 2 mM ATP, 100 mM Tris-HCl, 100 mM KCl, 10 mM MgCl2
T14 construct: gene DTYMK; pGEX-2T in E. coli BL21; N-terminal GST cut by thrombin
T14 sequence (P23919 1-212): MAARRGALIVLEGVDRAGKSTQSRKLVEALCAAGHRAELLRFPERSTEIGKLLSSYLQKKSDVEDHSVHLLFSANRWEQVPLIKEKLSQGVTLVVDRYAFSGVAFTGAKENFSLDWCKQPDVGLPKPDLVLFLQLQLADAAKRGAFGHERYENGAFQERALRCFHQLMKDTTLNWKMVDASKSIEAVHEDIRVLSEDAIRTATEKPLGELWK

Structure (SMILES) | MIC [1] [µg/mL] | MIC [2] [µg/mL] | MIC [3] [µg/mL] | MIC [4] [µg/mL] | MIC [5] [µg/mL] | MIC [6] [µg/mL] | MIC (Candida albicans SC5314) [µg/mL] | MIC [7] [µg/mL] | MIC [8] [µg/mL] | MIC [9] [µg/mL] | MIC [10] [µg/mL] | MIC [11] [µg/mL] | Km (CaTMPK) | Km (hTMPK)
O=c1[nH]c(=O)n([C@@H]2O[C@H](CO)[C@@H](O)[C@H]2O)cc1F [5-FUrd, 5-fluorouridine] | 0.021 ± 0.001 (≈ 0.0801 µM) | 0.028 ± 0.002 (≈ 0.107 µM) | 0.036 ± 0.008 (≈ 0.137 µM) | 0.076 ± 0.02 (≈ 0.29 µM) | 0.063 ± 0.012 (≈ 0.24 µM) | 0.031 ± 0.003 (≈ 0.118 µM) | 0.044 ± 0.003 (≈ 0.168 µM) | 0.043 ± 0.001 (≈ 0.164 µM) | 0.03 ± 0.011 (≈ 0.114 µM) | 0.049 ± 0.001 (≈ 0.187 µM) | 0.026 ± 0.001 (≈ 0.0992 µM) | 0.021 ± 0.008 (≈ 0.0801 µM) |  | 
O=c1ccn([C@H]2C[C@H](O)[C@@H](COP(=O)(O)O)O2)c(=O)[nH]1 [dUMP] |  |  |  |  |  |  |  |  |  |  |  |  | Steady-state kinetics of CaTMPK and hTMPK using different dUMP concentrations | Steady-state kinetics of CaTMPK and hTMPK using different dUMP concentrations
